One compound from patent US8796175B2, “Method for enhancing plant intrinsic defense” (Bayer CropScience AG, priority 2008, dated 2014) can be followed below.

The assay deals with Tomato (Solanum lycopersicum 'Rentita'). The experiment in a line: Root growth test of tomatoes under oxygen deficiency conditions in the nutrient solution. It counts as in vivo. Conditions: 1.0 mg a.i./plant, floating box, nutrient solution not aerated (oxygen deficiency stress), average of maximum root length per plant. How it is done: To prepare a suitable solution of the preparation, 1 part by weight of active substance is mixed with water to give the desired concentration.
Tomato seeds (Solanum lycopersicum ‘Rentita’) are grown in rock wool. After germination, the rock wool blocks are transferred into a floating box provided with the solution of the preparation and grown on under suitable climatic conditions.
The nutrient solution of the floating box was not aerated (oxygen deficiency stress).
After the desired period of time, the maximum length of the root per tomato plant is measured, and the average root length per floating box and treatment is calculated.

For the compound `CC(c1ccc(C(F)(F)F)nc1)S(C)(=O)=NC#N` (stereo not shown) [Compound (I-8)], the “Root growth of tomatoes: Length in cm after 4 d” value is reported as 6.7 cm.
